{
  "source": "patent US8952024B2",
  "about": "“Herbicidal pyrimidone derivatives” (E I du Pont de Nemours and Company, priority 2009, dated 2015)",
  "format_in_all_cases": "in vivo",
  "key": {"[1]": {"system": "barnyardgrass (Echinochloa crus-galli)", "experiment": "Test A pre-/postemergence plant response", "conditions": "Echinochloa crus-galli, 240 h, read-out: Plant response rating, Barnyardgrass; for pest or weed control at 125 g/ha: 125 g ai/ha; for pest or weed control at 500 g/ha: 500 g ai/ha, approx. ten days", "in_short": "(§1)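 Approximately ten days after concurrent pre- and postemergence spraying in a greenhouse, plants were compared with untreated controls and rated visually for injury, 0 = no effect to 100 = complete control. Preemergence spray was directed onto loam/sand soil; postemergence targeted 1–2 leaf seedlings.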"}, "corn (Zea mays)": {"system": "corn (Zea mays)", "experiment": "Test A pre-/postemergence plant response", "conditions": "Zea mays, 240 h; for Corn plant response rating (crop injury, 0 = no effect, 100 = complete kill) at 125 g/ha: 125 g ai/ha", "in_short": "as §1"}, "[2]": {"system": "giant foxtail (Setaria faberii)", "experiment": "Test A pre-/postemergence plant response", "conditions": "Setaria faberi, 240 h, read-out: Plant response rating, Foxtail, Giant; for pest or weed control at 125 g/ha: 125 g ai/ha; for pest or weed control at 500 g/ha: 500 g ai/ha, approx. ten days", "in_short": "as §1"}, "[3]": {"system": "large crabgrass (Digitaria sanguinalis)", "experiment": "Test A pre-/postemergence plant response", "conditions": "Digitaria sanguinalis, 240 h, read-out: Plant response rating, Crabgrass, Large; for pest or weed control at 125 g/ha: 125 g ai/ha; for pest or weed control at 500 g/ha: 500 g ai/ha, approx. ten days", "in_short": "as §1"}, "[4]": {"system": "velvetleaf (Abutilon theophrasti)", "experiment": "Test A pre-/postemergence plant response", "conditions": "Abutilon theophrasti, 240 h, read-out: Plant response rating, Velvetleaf; for pest or weed control at 125 g/ha: 125 g ai/ha; for pest or weed control at 500 g/ha: 500 g ai/ha, approx. ten days", "in_short": "as §1"}, "[5]": {"system": "wheat (Triticum aestivum)", "experiment": "Test A pre-/postemergence plant response", "conditions": "Triticum aestivum, 240 h, read-out: Plant response rating, Wheat; for plant injury at 125 g/ha: 125 g ai/ha; for plant injury at 500 g/ha: 500 g ai/ha, approx. ten days", "in_short": "as §1"}, "[6]": {"system": "galium (catchweed bedstraw, Galium aparine)", "experiment": "Test B pre-/postemergence plant response", "conditions": "Preemergence", "in_short": "(§2)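 Visually scored on a 0 to 100 scale after 13 to 15 days in greenhouse versus controls. Treatments were preemergence on seeded loam/sand soil and postemergence on 1- to 4-leaf plants.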"}, "[7]": {"system": "nightshade (eastern black nightshade, Solanum ptycanthum)", "experiment": "Test B pre-/postemergence plant response", "conditions": "Preemergence", "in_short": "as §2"}, "[8]": {"system": "sunflower (common oilseed sunflower, Helianthus annuus)", "experiment": "Test B pre-/postemergence plant response", "conditions": "Preemergence", "in_short": "as §2"}, "[9]": {"system": "canarygrass (Phalaris minor)", "experiment": "Test B postemergence plant response", "in_short": "(§3)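 Plants at the 1- to 4-leaf stage (2 to 18 cm tall), grown in pots of peat moss/vermiculite medium with wetting agent and starter nutrients, received postemergence applications of test chemicals. After 13 to 15 days in a greenhouse, injury was rated visually against untreated controls on a 0 (no effect) to 100 (complete control) scale.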"}, "[10]": {"system": "chickweed (Stellaria media)", "experiment": "Test B postemergence plant response", "in_short": "as §3"}, "[11]": {"system": "windgrass (Apera spica-venti)", "experiment": "Test B postemergence plant response", "in_short": "as §3"}, "[12]": {"system": "winter barley (Hordeum vulgare)", "experiment": "Test B postemergence plant response", "in_short": "as §3"}, "[13]": {"conditions": "post-emergence, Postemergence, 0 to 100 scale where 0 is no effect and 100 is complete control"}, "[14]": {"conditions": "post-emergence, Postemergence, 0 to 100 scale, 0 = no effect, 100 = complete control"}, "[15]": {"conditions": "pre-emergence, Preemergence, 0 to 100 scale, 0 = no effect, 100 = complete control"}, "[16]": {"conditions": "pre-emergence, Preemergence, visual injury, 0 to 100 scale (0 no effect, 100 complete control)"}, "[17]": {"conditions": "31 g ai/ha, scale 0 to 100 (0 no effect, 100 complete control)"}, "[18]": {"conditions": "62 g ai/ha, scale 0 to 100, 0 no effect, 100 complete control"}, "[19]": {"conditions": "125 g ai/ha, scale 0 to 100, 0 no effect, 100 complete control"}, "[20]": {"conditions": "62 g ai/ha, postemergence, 0 is no effect, 100 is complete control, 13 to 15 days"}},
  "note": "Read-outs that look alike come from different tables or passages of the source.",
  "data": [
    {"smiles": "O=C1CCCC(O)=C1C(=O)c1cnc(-c2cccnc2)n(-c2ccccc2)c1=O", "note": "[Compound 113, 5-[(2-hydroxy-6-oxo-1-cyclohexen-1-yl)carbonyl]-3-phenyl-2-(3-pyridinyl)-4(3H)-pyrimidone]", "values": [
      {"measurement": "pest or weed control at 125 g/ha", "setting": "[1]; [13]", "value": 70, "unit": "%"},
      {"measurement": "pest or weed control at 500 g/ha", "setting": "[1]; [14]", "value": 90, "unit": "%"},
      {"measurement": "pest or weed control at 125 g/ha", "setting": "[1]; [15]", "value": 10, "unit": "%"},
      {"measurement": "pest or weed control at 500 g/ha", "setting": "[1]; [16]", "value": 90, "unit": "%"},
      {"measurement": "Corn plant response rating (crop injury, 0 = no effect, 100 = complete kill) at 125 g/ha", "setting": "corn (Zea mays); [13]", "value": 0, "unit": "%"},
      {"measurement": "Corn plant response rating (crop injury, 0 = no effect, 100 = complete kill) at 500 g/ha", "setting": "corn (Zea mays); post-emergence, Postemergence, 500 g ai/ha, 0 to 100 scale, 0 = no effect, 100 = complete control, approx. ten days", "value": 60, "unit": "%"},
      {"measurement": "Corn plant response rating (crop injury, 0 = no effect, 100 = complete kill) at 125 g/ha", "setting": "corn (Zea mays); [15]", "value": 0, "unit": "%"},
      {"measurement": "pest or weed control at 125 g/ha", "setting": "[2]; [13]", "value": 90, "unit": "%"},
      {"measurement": "pest or weed control at 500 g/ha", "setting": "[2]; [14]", "value": 100, "unit": "%"},
      {"measurement": "pest or weed control at 125 g/ha", "setting": "[2]; [15]", "value": 70, "unit": "%"},
      {"measurement": "pest or weed control at 500 g/ha", "setting": "[2]; [16]", "value": 90, "unit": "%"},
      {"measurement": "pest or weed control at 125 g/ha", "setting": "[3]; [13]", "value": 100, "unit": "%"},
      {"measurement": "pest or weed control at 500 g/ha", "setting": "[3]; [14]", "value": 100, "unit": "%"},
      {"measurement": "pest or weed control at 125 g/ha", "setting": "[3]; [15]", "value": 70, "unit": "%"},
      {"measurement": "pest or weed control at 500 g/ha", "setting": "[3]; [16]", "value": 100, "unit": "%"},
      {"measurement": "pest or weed control at 125 g/ha", "setting": "[4]; [13]", "value": 100, "unit": "%"},
      {"measurement": "pest or weed control at 500 g/ha", "setting": "[4]; [14]", "value": 100, "unit": "%"},
      {"measurement": "pest or weed control at 125 g/ha", "setting": "[4]; [15]", "value": 100, "unit": "%"},
      {"measurement": "pest or weed control at 500 g/ha", "setting": "[4]; [16]", "value": 100, "unit": "%"},
      {"measurement": "plant injury at 125 g/ha", "setting": "[5]; [13]", "value": 0, "unit": "%"},
      {"measurement": "plant injury at 500 g/ha", "setting": "[5]; [14]", "value": 60, "unit": "%"},
      {"measurement": "plant injury at 125 g/ha", "setting": "[5]; [15]", "value": 0, "unit": "%"},
      {"measurement": "plant injury at 500 g/ha", "setting": "[5]; [16]", "value": 0, "unit": "%"},
      {"measurement": "Plant response rating, Galium", "setting": "[6]; [17]", "value": 50},
      {"measurement": "Plant response rating, Galium", "setting": "[6]; [18]", "value": 70},
      {"measurement": "Plant response rating, Galium", "setting": "[6]; [19]", "value": 85},
      {"measurement": "Galium plant response rating", "setting": "[6]; 250 g ai/ha, 0 to 100 scale", "value": 95},
      {"measurement": "Plant response rating, Nightshade", "setting": "[7]; [17]", "value": 98},
      {"measurement": "Plant response rating, Nightshade", "setting": "[7]; [18]", "value": 98},
      {"measurement": "Plant response rating, Nightshade", "setting": "[7]; [19]", "value": 100},
      {"measurement": "Nightshade plant response rating", "setting": "[7]; 250 g ai/ha, 0 to 100 scale", "value": 100},
      {"measurement": "Plant response rating, Sunflower", "setting": "[8]; [17]", "value": 75},
      {"measurement": "Plant response rating, Sunflower", "setting": "[8]; [18]", "value": 80},
      {"measurement": "Plant response rating, Sunflower", "setting": "[8]; [19]", "value": 90},
      {"measurement": "Sunflower plant response rating", "setting": "[8]; 250 g ai/ha, 0 to 100 scale", "value": 95},
      {"measurement": "Canarygrass plant response rating (0 to 100 scale)", "setting": "[9]; [20]", "value": 90},
      {"measurement": "pest or weed control at 31 g/ha", "setting": "[9]; Phalaris minor, post-emergence, 360 h, 31 g ai/ha, postemergence, scale 0 to 100, 0 is no effect, 100 is complete control, read-out: Plant response rating, Canarygrass", "value": 65, "unit": "%"},
      {"measurement": "pest or weed control at 250 g/ha", "setting": "[9]; Phalaris minor, post-emergence, 360 h, Postemergence, 250 g ai/ha, scale 0 to 100 (0 no effect, 100 complete control), read-out: Plant response rating, Canarygrass", "value": 90, "unit": "%"},
      {"measurement": "Chickweed plant response rating (0 to 100 scale)", "setting": "[10]; [20]", "value": 98},
      {"measurement": "pest or weed control at 31 g/ha", "setting": "[10]; Stellaria media, post-emergence, 360 h, 31 g ai/ha, postemergence, scale 0 to 100, 0 is no effect, 100 is complete control, read-out: Plant response rating, Chickweed", "value": 98, "unit": "%"},
      {"measurement": "pest or weed control at 125 g/ha", "setting": "[10]; Stellaria media, post-emergence, 360 h, Postemergence, 125 g ai/ha, scale 0 to 100 (0 no effect, 100 complete control), read-out: Plant response rating, Chickweed", "value": 100, "unit": "%"},
      {"measurement": "pest or weed control at 250 g/ha", "setting": "[10]; Stellaria media, post-emergence, 360 h, Postemergence, 250 g ai/ha, scale 0 to 100 (0 no effect, 100 complete control), read-out: Plant response rating, Chickweed", "value": 100, "unit": "%"},
      {"measurement": "Windgrass plant response rating (0 to 100 scale)", "setting": "[11]; [20]", "value": 30},
      {"measurement": "pest or weed control at 125 g/ha", "setting": "[11]; Apera spica-venti, post-emergence, 360 h, Postemergence, 125 g ai/ha, scale 0 to 100 (0 no effect, 100 complete control), read-out: Plant response rating, Windgrass", "value": 35, "unit": "%"},
      {"measurement": "Barley plant response rating (0 to 100 scale)", "setting": "[12]; [20]", "value": 5},
      {"measurement": "plant injury at 31 g/ha", "setting": "[12]; Hordeum vulgare, post-emergence, 31 g ai/ha, postemergence, scale 0 to 100, 0 is no effect, 100 is complete control, read-out: Plant response rating, Barley", "value": 0, "unit": "%"},
      {"measurement": "plant injury at 125 g/ha", "setting": "[12]; Hordeum vulgare, post-emergence, Postemergence, 125 g ai/ha, scale 0 to 100 (0 no effect, 100 complete control), read-out: Plant response rating, Barley", "value": 5, "unit": "%"},
      {"measurement": "plant injury at 250 g/ha", "setting": "[12]; Hordeum vulgare, post-emergence, Postemergence, 250 g ai/ha, scale 0 to 100 (0 no effect, 100 complete control), read-out: Plant response rating, Barley", "value": 20, "unit": "%"}
    ]}
  ]
}
